Literature values as cited in patent publication US6383817B2, “Cadmium is a risk factor for human pancreatic cancer” (Wake Forest University, priority 1999, dated 2002).
Read-outs that look alike come from different tables or passages of the source.

What was measured:
[1] = tested on: Louisiana red swamp crayfish (Procambarus clarkii); details: day 14; crayfish fed plants grown for 7 days in 0.00224 ppb cadmium
rats = details: repeated injections to rats
[2] = tested on: pancreatic metallothionein; details: rats
[3] = not given; remark: listed apart in the source
mice = details: injection of 4 mg/kg, relative to saline
Wistar rats = details: injection, vs. 2.2% control

Structure (SMILES)	Accumulation of cadmium in hepatopancreata [1]	rats with hepatocytic foci in the pancreata (rats)	increase in pancreatic metallothionein ([2]; injection of 4 mg/kg)	increase in pancreatic metallothionein ([2]; injection of 8 mg/kg)	SMR (x100), pancreatic cancer deaths (Elinder et al. (1985), male cadmium-nickel battery workers, Oskarshamn, Sweden)	SMR (x100), pancreatic cancer deaths (Järup et al. (1998), battery workers, Kalmar, Sweden, females)	SMR (x100), pancreatic cancer deaths (Järup et al. (1998), battery workers, Kalmar, Sweden, males)	SMR (x100), pancreatic cancer deaths (Sorahan et al. (1995), male copper cadmium alloy workers, England and Wales)	correlation (r) between estimated dietary intake of cadmium and pancreatic cancer mortality ([3]; men)	correlation (r) between estimated dietary intake of cadmium and pancreatic cancer mortality ([3]; women)	increase in the incorporation of [3H] thymidine in the pancreas (mice)	incidence of pancreatic islet cell tumors (Wistar rats)
[Cd] [cadmium]	4,657.6 ppb	more than 93%	9.8 fold	17.9 fold	130	220	148	218	0.48	0.25		
[Cl][Cd][Cl] [cadmium chloride]											2.5 fold	8.5%
